Where a name gives a salt, the structure may show the parent alone.
target: human Kv1.5 channels (Homo sapiens (Human), UniProt P22460); test: Measurement of human Kv1.5 channel current by whole-cell patch clamp method (human Kv1.5-expressing CHO-K1 cell line), Pharmacological Test 1; type: cell-based; details: First Invention, Table 2, human Kv1.5-expressing CHO-K1 cells, step end current at +40 mV
Method: Pharmacological Test 1 (1) Production of Human Kv1.5-Expressing CHO-K1 Cell Lines
CHO-K1 cell lines stably expressing human Kv1.5 channels were prepared in the following manner.
Full-length human Kv1.5 cDNA was cloned from a human heart cDNA library (produced by Stratagene). The obtained human Kv1.5 sequence corresponds to the sequence described in FASEB J. 5, 331-337 (1991).
The obtained human Kv1.5 cDNA was inserted into a plasmid encoding a CMV promoter and a G418 resistance marker to produce a Kv1.5 expression vector. The human Kv1.5 expression vector was transfected into CHO-K1 cells by the lipofectamine method. After culturing the cells in an F-12 medium (produced by Invitrogen Corp.) containing 10% FBS (produced by Invitrogen Corp.) for 3 or 4 days, the medium was replaced with a FBS-containing F-12 medium that included 1,000 μg/ml of G418 (produced by Invitrogen Corp.), and single colonies were isolated. The amount of Kv1.5 channel expression in the single colonies was quantified at the mRNA level by RT-PCR and then quantified at the protein level by western blotting. Finally, the expressed current was analyzed by patch clamp method. […]
Depolarizing stimulation pulses were applied and ionic current was recorded by using a patch clamp amplifier (EPC-7 or EPC-7 PLUS, produced by HEKA) and a personal computer (manufactured by IBM Corp.) in which software for data acquisition and analysis of ion channel current (PULSE 8.77, produced by HEKA) was installed. The current was measured in the whole-cell configuration of the patch-clamp technique. […] Subsequently, the series resistance (Rs) between the pipette and the interior of the cell was measured and corrected. […]
While the membrane potential was holded at −80 mV, depolarizing pulses (−80 mV for 0.05 seconds→□□+40 mV for 0.2 seconds →□□−40 mV for 0.2 seconds→□□−80 mV for 0.05 seconds) were applied at a stimulation frequency of 1 Hz to measure Kv1.5 channel current. […] The current obtained during the pulse application was recorded as a current in the absence of the test compounds. […]

human Kv1.5 channels, sequence (P22460 whole entry): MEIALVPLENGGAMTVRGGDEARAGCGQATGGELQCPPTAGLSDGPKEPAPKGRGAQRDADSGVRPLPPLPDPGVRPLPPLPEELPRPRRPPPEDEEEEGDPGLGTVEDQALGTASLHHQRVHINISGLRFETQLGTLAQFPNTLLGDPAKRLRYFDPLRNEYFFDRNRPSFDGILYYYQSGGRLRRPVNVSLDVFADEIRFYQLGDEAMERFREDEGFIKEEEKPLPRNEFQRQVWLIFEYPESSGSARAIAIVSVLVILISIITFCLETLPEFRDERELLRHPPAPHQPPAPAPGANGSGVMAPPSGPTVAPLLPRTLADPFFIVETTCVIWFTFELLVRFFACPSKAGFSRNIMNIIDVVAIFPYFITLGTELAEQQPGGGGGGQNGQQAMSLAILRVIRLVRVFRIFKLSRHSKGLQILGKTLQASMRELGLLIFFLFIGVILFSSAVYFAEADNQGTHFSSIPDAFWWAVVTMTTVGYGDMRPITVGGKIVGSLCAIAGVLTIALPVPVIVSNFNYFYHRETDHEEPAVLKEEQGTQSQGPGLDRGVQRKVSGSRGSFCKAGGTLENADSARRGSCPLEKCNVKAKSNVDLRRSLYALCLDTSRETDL

| Compound | IC50 [nM] |
| --- | --- |
| CCN1C(=O)C(C)(C)C(=O)N(C)c2cc(CN(CCc3cccnc3)C(=O)Cc3cn(C)c4ccccc34)ccc21 [Example 330, N-(1-Ethyl-3,3,5-trimethyl-2,4-dioxo-2,3,4,5-tetrahydro-1H-benzo[b][1,4]diazepin-7-ylmethyl)-2-(1-methyl-1H-indol-3-yl)-N-(2-pyridin-3-ylethyl)acetamide hydrochloride] | 860 |
| CCN1C(=O)C(C)(C)C(=O)N(C)c2cc(CN(CCn3cc(C)c4occc4c3=O)Cc3cccnc3COC)ccc21 [Example 318, 1-Ethyl-7-({N-(2-methoxymethylpyridin-3-ylmethyl)-N-[2-(7-methyl-4-oxo-4H-furo[3,2-c]pyridin-5-yl)ethyl]amino}methyl)-3,3,5-trimethyl-1,5-dihydrobenzo[b][1,4]diazepine-2,4-dione] | 2900 |
| CCN1C(=O)C(C)(C)C(=O)N(C)c2cc(CN(CCn3ccc4oc(C)cc4c3=O)Cc3cccnc3COC)ccc21 [Example 317, 1-Ethyl-7-({N-(2-methoxymethylpyridin-3-ylmethyl)-N-[2-(2-methyl-4-oxo-4H-furo[3,2-c]pyridin-5-yl)ethyl]amino}methyl)-3,3,5-trimethyl-1,5-dihydrobenzo[b][1,4]diazepine-2,4-dione] | 630 |
